From patent US8785662B2, “Anilide-based compounds for preserving wood and method of use thereof” (SDS Biotech K.K., priority 2010, dated 2014)

The molecules below were run on Fomitopsis palustris (assay: Agar plate colony growth inhibition test on Fomitopsis palustris). Settings: 0.5 ppm in potato dextrose agar, 25° C., colony diameter on the seventh day vs control.
Assay type: cell-based
Experimental: Each of 1% w/v dimethylsulfoxide solution of compound A, compound B and comparative compounds 1 to 13 was prepared. A predetermined amount of the solutions diluted with dimethylsulfoxide were fully mixed in the sterilized potato dextrose agar medium, and 15 ml of the resultant medium was poured into a petri dish 90 mm in diameter and allowed to stand at room temperature. As a control, the potato dextrose agar medium added with dimethylsulfoxide only was also prepared. […] The fungi was cultivated in the petri dish at 25° C., and the diameter of the colony spread from the source of inoculum was measured on the seventh day. The growth inhibition ratio between the diameter of the test colony and that of the control was determined by the following formula as an indication of the degree of inhibition. Compounds A and B apparently had greater effects on Fomitopsis palustris compared to the compounds which had been disclosed in the past. Growth inhibition ratio (%)={(diameter of the control colony−diameter of the test colony)/diameter of the control colony}×100 [Formula 1]

SMILES | Degree of inhibition on Fomitopsis palustris at 0.5 ppm
Cc1cc(C(=O)Nc2cccc(C(C)C)c2)c(C)o1 [compound 1, 3′-isopropyl-2,5-dimethylfuran-3-carboxylic acid anilide] | ▴ (inhibition ratio of 25 to 50%)
Cc1nc(C(F)(F)F)c(C(=O)Nc2cccc(C(C)C)c2)s1 [compound 11, 3′-isopropyl-2-methyl-4-trifluoromethyl-1,3-thiazole-5-carboxylic acid anilide] | ▴ (inhibition ratio of 25 to 50%)
Cc1ccccc1C(=O)Nc1cccc(C(C)C)c1 [compound 6, 3′-isopropyl-2-methylbenzoic acid anilide] | ▴ (inhibition ratio of 25 to 50%)
CC(C)Oc1cccc(NC(=O)c2ccccc2C(F)(F)F)c1 [compound 4, 3′-isopropoxy-2-trifluoromethyl benzoic acid anilide] | ▴ (inhibition ratio of 25 to 50%)
Cc1occc1C(=O)Nc1cccc(C(C)C)c1 [compound 8, 3′-isopropyl-2-methylfuran-3-carboxylic acid anilide] | ▴ (inhibition ratio of 25 to 50%)
CC(C)c1cccc(NC(=O)c2ccoc2)c1 [compound 7, 3′-isopropyl-3-furancarboxylic acid anilide] | x (inhibition ratio of 25% or less)
Cc1ncsc1C(=O)Nc1cccc(C(C)C)c1 [compound 9, 3′-isopropyl-4-methylthiazole-5-carboxylic acid anilide] | x (inhibition ratio of 25% or less)
Cc1cc(C(=O)Nc2cccc(C(C)C)c2)c(C)[nH]1 [compound 12, 3′-isopropyl-2,5-dimethylpyrrole-3-carboxylic acid anilide] | x (inhibition ratio of 25% or less)
CCc1cccc(NC(=O)c2cc(C)oc2C)c1 [compound 2, 3′-ethyl-2,5-dimethylfuran-3-carboxylic acid anilide] | ▴ (inhibition ratio of 25 to 50%)
Cc1cccc(NC(=O)c2cc(C)oc2C)c1 [compound 3, 3′-methyl-2,5-dimethylfuran-3-carboxylic acid anilide] | x (inhibition ratio of 25% or less)
Cc1cc(C(=O)Nc2cccc(OC(C)C)c2)c(C(F)(F)F)o1 [Compound B, 3′-isopropoxy-5-methyl-2-trifluoromethylfuran-3-carboxylic acid anilide] | ∘ (inhibition ratio of 75% or more)
Cc1cc(C(=O)Nc2cccc(C(C)C)c2)c(C(F)(F)F)o1 [Compound A, 3′-isopropyl-5-methyl-2-trifluoromethylfuran-3-carboxylic acid anilide] | ∘ (inhibition ratio of 75% or more)
CC(C)c1cccc(NC(=O)c2cn(C)nc2C(F)(F)F)c1 [compound 13, 3′-isopropyl-1-methyl-3-trifluoromethylpyrazole-4-carboxylic acid anilide] | ▴ (inhibition ratio of 25 to 50%)
Cc1nc(C)c(C(=O)Nc2cccc(C(C)C)c2)s1 [compound 10, 3′-isopropyl-2,4-dimethyl-1,3-thiazole-5-carboxylic acid anilide] | Δ (inhibition ratio of 50 to 75%)
Cc1ccccc1C(=O)Nc1cccc(OC(C)C)c1 [compound 5, 3′-isopropoxy-2-methylbenzoic acid anilide] | ▴ (inhibition ratio of 25 to 50%)

What follows are molecules tested on Trametes versicolor (assay: Agar plate colony growth inhibition test on Trametes versicolor, single compounds and mixtures with triazoles (Colby)). Settings: single compound 0.2 ppm, potato dextrose agar, 25° C., seventh day.
Assay type: cell-based
Experimental: Each of 1% w/v dimethylsulfoxide solution of compound A, compound B, cyproconazole (manufactured by Wako Pure Chemical Industries, Ltd.), epoxyconazole (manufactured by Wako Pure Chemical Industries, Ltd.) and tetraconazole (manufactured by Wako Pure Chemical Industries, Ltd.) was prepared. The solutions diluted with dimethylsulfoxide were fully mixed in the sterilized potate dextrose agar medium, and 15 ml of the resultant medium was poured into a petri dish 90 mm in diameter and allowed to stand at room temperature. As a control, the potate dextrose agar medium added with dimethylsulfoxide only was also prepared. After the medium was solidified, the mycelia was scooped with the medium from the colony of Trametes versicolor as being a typical wood-decaying fungi, which had been cultivated in advance, using a cork bailer 5 mm in diameter; and inoculated in the center of the test medium. The fungi was cultivated in the petri dish at 25° C., and the diameter of the colony spread from the source of inoculum was measured on the seventh day. The growth inhibition ratio by comparing the diameter of the test colony to that of the control was determined by the above-mentioned formula as an indication of the actual measured growth inhibition ratio. The theoretical efficacy ratio of the mixture of the active ingredients (i.e. theoretical growth inhibition ratio) was determined using the following Colby's formula (R. S. Colby, Weeds 15, 20-22 (1967)) to thereby be compared with the actual-measured efficacy ratio ([…]). […] Colby's formula: E=x+y−x·y/100 [Formula 2] E: theoretical efficacy ratio (theoretical growth inhibition ratio) represented by the ratio (%) to the control when the mixture of active compound B (concentration b) and C (concentration c) was used. x: efficacy ratio (growth inhibition ratio) represented by the ratio (%) to the control when active compound B was used at a concentration of b. y: efficacy ratio (growth inhibition ratio) represented by the ratio (%) to the control when active compound C was used at a concentration of c.

SMILES | Actual measured growth inhibition ratio (%)
FC(F)C(F)(F)OCC(Cn1cncn1)c1ccc(Cl)cc1Cl (centres unmarked) [Tetraconazole, tetraconazole] | 25%
Fc1ccc([C@]2(Cn3cncn3)O[C@H]2c2ccccc2Cl)cc1 (racemic) [Epoxiconazole, epoxyconazole] | 24%
Cc1cc(C(=O)Nc2cccc(OC(C)C)c2)c(C(F)(F)F)o1 [Compound B, 3′-isopropoxy-5-methyl-2-trifluoromethylfuran-3-carboxylic acid anilide] | 44%
Cc1cc(C(=O)Nc2cccc(C(C)C)c2)c(C(F)(F)F)o1 [Compound A, 3′-isopropyl-5-methyl-2-trifluoromethylfuran-3-carboxylic acid anilide] | 49%
CC(C1CC1)C(O)(Cn1cncn1)c1ccc(Cl)cc1 (centres unmarked) [cyproconazole] | 33%
